Values joined by “and” are separate entries in the source; they are usually repeats but may differ in a detail not shown here. Identical values can stand only once.
Experiments:
[1] = system: Botrytis cinerea; test: Treatment of wounded strawberries inoculated with Botrytis cinerea (dip, mould growth); format: in vivo; settings: 20° C.
Experimental: Ten fresh, organic strawberries were used per treatment. Each strawberry was wounded with a 0.5 mm long cut and each wound was inoculated with 10 μl of a Botrytis cinerea suspension containing 1×10^5 of spores/ml. […] The antifungal composition also comprised 3.1% (w/w) beeswax, 0.76% (w/w) glycerol, 0.66% (w/w) polyoxyethylene sorbitan monostearate (Tween 60), 0.03% (w/w) methylhydroxyethyl-cellulose (MHEC), 0.02% (w/w) xanthan gum, 0.02% (w/w) anti-foaming agent, 0.15% (w/w) citric acid and 0.01% (w/w) potassium sorbate. The pH of the compositions was 4. A composition without natamycin or procymidone was used as control. The treated strawberries were incubated in a closed box in the dark at 20° C. for 13 days.
During incubation, mould growth on the strawberries was assessed in a twofold manner: (i) the number of moulded strawberries per total of 10 strawberries was counted; and (ii) the antifungal activity (in %) of the individual and combined active ingredients was determined by calculating the reduction in mould growth observed on the strawberries treated with the antifungal composition in comparison to the mould growth on the strawberries treated with the control composition. The expected antifungal activity (E in %) of the combined antifungal composition comprising both active ingredients was calculated according to the Colby equation (Colby, 1967): […]
wherein X and Y are the observed antifungal activities (in %) of the individual active ingredients X and Y, respectively. If the observed antifungal activity (O in %) of the combination exceeds the expected antifungal activity (E in %) of the combination and the synergy factor O/E is thus >1.0, the combined application of the active ingredients leads to a synergistic antifungal effect.
The treated strawberries were assessed on mould growth after 4, 5 and 7 days of incubation according to the two methods described in Example 3.
The treated strawberries were incubated for 9 days and, as of day 5, assessed on mould growth daily. The antifungal activity (in %) of the individual and combined active ingredients was determined according to the method described in Example 3.
During incubation, the treated strawberries were assessed on mould growth according to the two methods described in Example 3.

[2] = system: Botrytis cinerea; test: Treatment of wounded apples inoculated with Botrytis cinerea (dip, mould growth); format: in vivo; settings: 250 ppm natamycin, 20° C.
Experimental: Twelf fresh, organic apples were used per treatment. Each apple was wounded once using a cork borer according to the method described by de Lapeyre de Bellaire and Dubois (1987). Subsequently, each wound was inoculated with 10 μl of a Botrytis cinerea suspension containing 1×10^5 of spores/ml. […] In addition, the antifungal compositions comprised 3.1% (w/w) beeswax, 0.76% (w/w) glycerol, 0.66% (w/w) polyoxyethylene sorbitan monostearate (Tween 60), 0.03% (w/w) methylhydroxyethylcellulose (MHEC), 0.02% (w/w) xanthan gum, 0.02% (w/w) anti-foaming agent, 0.15% (w/w) citric acid and 0.01% (w/w) potassium sorbate. The pH of the compositions was 4. […] The treated apples were incubated in a closed box in the dark at 20° C.
During incubation, the treated apples were assessed on mould growth according to the two methods described in Example 8.

[3] = system: Botrytis cinerea; test: In vitro antifungal activity, 96-well microtiter plates; format: cell-based; settings: 1.25 ppm natamycin, 25° C.
Experimental: The following compositions were tested: […] After incubation of the microtiter plates at 25° C., the in vitro antifungal activity (%) of the individual active ingredients was assessed by calculating the reduction in mould growth observed in the presence of the active ingredient in comparison to the mould growth observed in the absence of the active ingredient. The expected antifungal activity (E in %) of the active ingredient combination was calculated according to the Colby equation (Colby, 1967): […] wherein X and Y are the observed antifungal activities (in %) of the individual active ingredients X and Y, respectively.

[4] = 250 ppm natamycin, 250 ppm procymidone or both, day 4
[5] = 250 ppm natamycin, 250 ppm procymidone or both, day 5
[6] = 250 ppm natamycin, 250 ppm procymidone or both, day 6
[7] = 250 ppm natamycin, 250 ppm procymidone or both, day 7
[8] = 250 ppm natamycin, 250 ppm procymidone or both, day 8
[9] = 250 ppm natamycin, 250 ppm procymidone or both, day 9
[10] = 500 ppm natamycin, 1000 ppm procymidone or both, day 5
[11] = 500 ppm natamycin, 1000 ppm procymidone or both, day 7
[12] = 500 ppm natamycin, 2000 ppm procymidone or both, day 5
[13] = 500 ppm natamycin, 2000 ppm procymidone or both, day 6
[14] = 500 ppm natamycin, 2000 ppm procymidone or both, day 7
[15] = 500 ppm natamycin, 2000 ppm procymidone or both, day 12
[16] = 500 ppm procymidone or both, day 13

C[C@@H]1C/C=C/C=C/C=C/C=C/[C@H](O[C@@H]2O[C@H](C)[C@@H](O)[C@H](N)[C@@H]2O)C[C@@H]2O[C@](O)(C[C@@H](O)C[C@H]3O[C@@H]3/C=C/C(=O)O1)C[C@H](O)[C@H]2C(=O)O [Natamycin, natamycin]
Number of moulded strawberries/total number of 10 strawberries [1, 4]: 4 and 4/10 | Observed antifungal activity O (%) [1, 4]: 53% | Number of moulded strawberries/total number of 10 strawberries [1, 5]: 7 and 7/10 | Observed antifungal activity O (%) [1, 5]: 34% | Number of moulded strawberries/total number of 10 strawberries [1, 6]: 9 and 9/10 | Observed antifungal activity O (%) [1, 6]: 15% | Number of moulded strawberries/total number of 10 strawberries [1, 7]: 10 and 10/10 | Observed antifungal activity O (%) [1, 7]: 11% | Number of moulded strawberries/total number of 10 strawberries [1, 8]: 10 and 10/10 | Observed antifungal activity O (%) [1, 8]: 10% | Number of moulded strawberries/total number of 10 strawberries [1, 9]: 10 and 10/10 | Observed antifungal activity O (%) [1, 9]: 5% | Observed antifungal activity O (%) ([1]; 250 ppm natamycin, 250 ppm procymidone or both, day 10): 3% | Observed antifungal activity O (%) ([1]; 250 ppm natamycin, 250 ppm procymidone or both, day 12): 0% | Observed antifungal activity O (%) ([1]; 250 ppm natamycin, 500 ppm procymidone or both, day 5): 34% | Observed antifungal activity O (%) ([1]; 250 ppm natamycin, 500 ppm procymidone or both, day 6): 15% | Observed antifungal activity O (%) ([1]; 250 ppm natamycin, 500 ppm procymidone or both, day 7): 11% | Observed antifungal activity O (%) ([1]; 250 ppm natamycin, 500 ppm procymidone or both, day 8): 10% | Observed antifungal activity O (%) ([1]; 250 ppm natamycin, 500 ppm procymidone or both, day 9): 5% | Observed antifungal activity O (%) ([1]; 500 ppm natamycin, 1000 ppm procymidone or both, day 4): 36% | Number of moulded strawberries/total number of 10 strawberries [1, 10]: 9 and 9/10 | Observed antifungal activity O (%) [1, 10]: 12% | Number of moulded strawberries/total number of 10 strawberries [1, 11]: 10 and 10/10 | Observed antifungal activity O (%) [1, 11]: 7% | Number of moulded strawberries/total number of 10 strawberries [1, 12]: 9 and 9/10 | Observed antifungal activity O (%) [1, 12]: 12% | Number of moulded strawberries/total number of 10 strawberries [1, 13]: 9 and 9/10 | Observed antifungal activity O (%) [1, 13]: 4% | Number of moulded strawberries/total number of 10 strawberries [1, 14]: 10 and 10/10 | Observed antifungal activity O (%) [1, 14]: 7% | Observed antifungal activity O (%) ([1]; 500 ppm natamycin, 2000 ppm procymidone or both, day 8): 5% | Number of moulded strawberries/total number of 10 strawberries ([1]; 500 ppm natamycin, 2000 ppm procymidone or both, day 8-10): 10 and 10/10 | Observed antifungal activity O (%) ([1]; 500 ppm natamycin, 2000 ppm procymidone or both, day 9): 3% | Observed antifungal activity O (%) ([1]; 500 ppm natamycin, 2000 ppm procymidone or both, day 10): 3% | Number of moulded strawberries/total number of 10 strawberries [1, 15]: 10 and 10/10 | Observed antifungal activity O (%) [1, 15]: 0% | Observed antifungal activity O (%) ([1]; 500 ppm natamycin, 2000 ppm procymidone or both, day 13): 0% | Number of moulded apples/total number of 12 apples ([2]; 250 ppm procymidone or both, day 6): 12/12 | Number of moulded apples/total number of 12 apples ([2]; 250 ppm procymidone or both, day 7-11): 12/12 | Number of moulded apples/total number of 12 apples ([2]; 250 ppm procymidone or both, day 12-13): 12/12 | Observed antifungal activity O (%) ([2]; 250 ppm procymidone or both, day 13): 31% | Observed antifungal activity O (%) ([2]; 250 ppm procymidone or both, day 14): 26% | Number of moulded apples/total number of 12 apples ([2]; 250 ppm procymidone or both, day 14-25): 12/12 | Observed antifungal activity O (%) ([2]; 250 ppm procymidone or both, day 15): 23% | Observed antifungal activity O (%) ([2]; 250 ppm procymidone or both, day 17): 18% | Observed antifungal activity O (%) ([2]; 250 ppm procymidone or both, day 18): 18% | Observed antifungal activity O (%) ([2]; 250 ppm procymidone or both, day 20): 16% | Observed antifungal activity O (%) ([2]; 250 ppm procymidone or both, day 22): 14% | Observed antifungal activity O (%) ([2]; 250 ppm procymidone or both, day 25): 14% | Number of moulded apples/total number of 12 apples ([2]; 500 ppm procymidone or both, day 4): 11 and 11/12 | Number of moulded apples/total number of 12 apples ([2]; 500 ppm procymidone or both, day 5-6): 12 and 12/12 | Number of moulded apples/total number of 12 apples ([2]; 500 ppm procymidone or both, day 7-11): 12 and 12/12 | Number of moulded apples/total number of 12 apples ([2]; 500 ppm procymidone or both, day 12): 12/12 | Number of moulded apples/total number of 12 apples [2, 16]: 12/12 | Observed antifungal activity O (%) [2, 16]: 31% | Observed antifungal activity O (%) ([2]; 500 ppm procymidone or both, day 14): 26% | Number of moulded apples/total number of 12 apples ([2]; 500 ppm procymidone or both, day 14-25): 12/12 | Observed antifungal activity O (%) ([2]; 500 ppm procymidone or both, day 15): 23% | Observed antifungal activity O (%) ([2]; 500 ppm procymidone or both, day 17): 18% | Observed antifungal activity O (%) ([2]; 500 ppm procymidone or both, day 18): 18% | Observed antifungal activity O (%) ([2]; 500 ppm procymidone or both, day 20): 16% | Observed antifungal activity O (%) ([2]; 500 ppm procymidone or both, day 22): 14% | Observed antifungal activity O (%) ([2]; 500 ppm procymidone or both, day 25): 14% | Observed antifungal activity O (%) ([3]; 1.5 ppm vinclozolin, 1.25 ppm procymidone, alone or natamycin + one of them, day 3): 0% | Observed antifungal activity O (%) ([3]; 1.5 ppm vinclozolin, 1.25 ppm procymidone, alone or natamycin + one of them, day 6): 0% | Observed antifungal activity O (%) ([3]; 3.0 ppm iprodione or both, day 5): 50% | Observed antifungal activity O (%) ([3]; 7.0 ppm vinclozolin, 2.0 ppm procymidone, alone or natamycin + one of them, day 10): 0% | Observed antifungal activity O (%) ([3]; 8.0 ppm iprodione or both, day 12): 0%

Source: patent US20130324489A1, “NEW ANTIFUNGAL COMPOSITIONS” (DSM IP ASSETS B.V., priority 2011, published 2013)
